In patent US8481005B2, “Methods to prevent cytotoxicity using N-acetyl-cysteine” (priority 2006, dated 2013):

Tests used:
Format in all cases: cell-based
PBMCs = PBMCs treated with HEMA or CDDP, FITC-Annexin V and PI; conditions: about 18 hours, highest concentration of CDDP, HEMA 0.0164M-0.00164M
From the text: The cells were then stained with FITC-Annexin V and PI according to the manufacturer's protocol.

active caspase 3 = test: Active caspase 3 staining in PBMCs treated with HEMA or CDDP; conditions: HEMA 0.0164M, CDDP
[1] = test system: dental pulp stromal cells; test: Cell death of rat dental pulp stromal cells with ascorbic acid; conditions: overnight incubation; FITC Annexin V and PI
Method: Rat dental pulp stromal cells were next treated with HEMA in the presence and absence of another antioxidant, ascorbic acid. After an overnight incubation following procedures similar to those described above, levels of cell death were determined using FITC Annexin V and PI. […] Role of Cell Differentiation Studies

Caspase 3 = test: Full length caspase 3 in keratinocytes; conditions: about 8 hours, NAC 20 mM
From the text: Roles of NFkB and GAPDH in HEMA-Mediated Cell Death

[2] = test system: human dental pulp stromal cells; test: VEGF by ELISA, human dental pulp stromal cells, NAC versus vitamin E (Table 5); conditions: 4 hours
Method: (§1) Following the 4 hour incubation, cells were analyzed for apoptosis using FTIC-Annexin V and PI.
Dental pulp stromal cells were then treated as described in the preceding paragraph with supernatants removed and assayed for VEGF levels by ELISA following the 4 hour incubation.

[3] = test system: human dental pulp stromal cells; test: Apoptosis of human dental pulp stromal cells, NAC versus vitamin E, 4 hours; conditions: HEMA (0.0082M), vitamin E (5 mM)
Method: as §1

Q: For `N.N.[Cl][Pt][Cl]` [CDDP, Cis-diaminedichloroplatinum (II)], which “cells remained both PI and Annexin V negative” value (PBMCs) is on record?
A: 80%

Q: And the “active caspase 3 staining” value (active caspase 3)?
A: 22%

Q: `O=C1O[C@H]([C@@H](O)CO)C(O)=C1O` [ascorbic acid] was tested. Which “reversal of apoptosis induced by HEMA” value [1] did it give?
A: did not reverse apoptosis induced by HEMA

Q: How did the “levels of full length caspase 3 (processing of caspase 3)” value (Caspase 3) turn out when `CC[C@@]1(O)C(=O)OCc2c1cc1n(c2=O)Cc2cc3ccccc3nc2-1` [camptothecin] was run?
A: moderate effect in processing of caspase 3

Q: Which results are given for Vitamin E [Vit E]?
A: VEGF levels by ELISA, Human dental pulp stromal cells ([2]; no HEMA, NAC (20 mM) and/or vitamin E (5 mM)): 1966.2; prevention of HEMA mediated decrease in VEGF secretion ([2]; vitamin E (5 mM)): failed to prevent the HEMA mediated decrease in VEGF secretion; inhibition of HEMA mediated cell death [3]: failed to inhibit HEMA mediated cell death
